Values quoted from earlier work as cited in article PMC9516332 (Frontiers in Oncology, 2022).
Like-named read-outs stand apart in the source and are kept apart here.

Legend:
Details in all cases: cited from earlier work
[1] = biological target: panel of 255 wild-type kinases (Homo sapiens, UniProt P54646)
[2] = biological target: panel of 255 wild-type kinases (Homo sapiens, UniProt Q13464)
[3] = biological target: panel of 255 wild-type kinases (Homo sapiens, UniProt P31751)
[4] = biological target: T1, panel of 255 wild-type kinases (Homo sapiens, UniProt P51955)
T1 sequence (P51955 1-445): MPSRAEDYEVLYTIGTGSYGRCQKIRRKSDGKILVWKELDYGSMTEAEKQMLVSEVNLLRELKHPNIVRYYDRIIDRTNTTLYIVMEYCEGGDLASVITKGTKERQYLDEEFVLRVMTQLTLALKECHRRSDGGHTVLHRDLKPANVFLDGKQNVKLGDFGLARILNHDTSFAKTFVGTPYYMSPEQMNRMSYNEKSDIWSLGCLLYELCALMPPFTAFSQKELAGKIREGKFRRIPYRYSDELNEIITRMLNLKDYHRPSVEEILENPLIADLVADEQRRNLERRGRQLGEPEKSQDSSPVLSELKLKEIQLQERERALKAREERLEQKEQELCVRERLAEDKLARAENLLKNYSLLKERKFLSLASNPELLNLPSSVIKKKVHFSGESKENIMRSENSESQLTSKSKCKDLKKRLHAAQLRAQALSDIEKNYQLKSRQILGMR

[5] = biological target: panel of 255 wild-type kinases (Homo sapiens, UniProt P06241)
[6] = biological target: T2, panel of 255 wild-type kinases (Homo sapiens, UniProt P54760)
T2 sequence (P54760 16-987): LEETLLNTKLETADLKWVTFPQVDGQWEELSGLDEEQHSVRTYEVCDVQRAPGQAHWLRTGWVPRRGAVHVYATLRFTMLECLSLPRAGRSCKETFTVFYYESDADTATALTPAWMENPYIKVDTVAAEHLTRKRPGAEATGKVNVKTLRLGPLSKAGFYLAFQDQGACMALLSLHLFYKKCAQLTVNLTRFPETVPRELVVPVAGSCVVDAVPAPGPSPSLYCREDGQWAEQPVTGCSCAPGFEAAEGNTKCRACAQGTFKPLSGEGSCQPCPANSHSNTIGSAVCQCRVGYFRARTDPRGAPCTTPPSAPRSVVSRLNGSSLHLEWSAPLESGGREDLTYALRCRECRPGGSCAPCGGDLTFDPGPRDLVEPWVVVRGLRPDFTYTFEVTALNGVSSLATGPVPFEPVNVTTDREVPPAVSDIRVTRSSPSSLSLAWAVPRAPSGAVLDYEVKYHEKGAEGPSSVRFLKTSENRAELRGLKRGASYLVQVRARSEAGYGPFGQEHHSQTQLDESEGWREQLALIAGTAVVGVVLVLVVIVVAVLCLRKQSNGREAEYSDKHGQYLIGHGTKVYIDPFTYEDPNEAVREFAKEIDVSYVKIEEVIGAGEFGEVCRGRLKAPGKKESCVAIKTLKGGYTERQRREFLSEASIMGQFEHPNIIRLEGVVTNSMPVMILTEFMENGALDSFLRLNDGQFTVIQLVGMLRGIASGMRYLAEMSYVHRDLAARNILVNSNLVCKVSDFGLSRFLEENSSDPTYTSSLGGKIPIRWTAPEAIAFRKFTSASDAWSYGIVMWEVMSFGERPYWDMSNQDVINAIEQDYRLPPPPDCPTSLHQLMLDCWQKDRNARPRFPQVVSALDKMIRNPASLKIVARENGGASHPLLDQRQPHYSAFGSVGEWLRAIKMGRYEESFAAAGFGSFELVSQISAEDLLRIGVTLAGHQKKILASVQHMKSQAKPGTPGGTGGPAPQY

[7] = biological target: panel of 255 wild-type kinases (Homo sapiens, UniProt P53779)
[8] = biological target: panel of 255 wild-type kinases (Homo sapiens, UniProt P07949)
[9] = biological target: panel of 255 wild-type kinases (Homo sapiens, UniProt O00311)
[10] = AMPKα2/β1/γ1 kinase assay, 1 µmol/L single concentration, ref DOI: 10.1158/1535-7163.MCT-18-0877
[11] = kinase ROCK1, 1 µmol/L single concentration, ref DOI: 10.1158/1535-7163.MCT-18-0877
[12] = AKT2 kinase assay, 1 µmol/L single concentration, ref DOI: 10.1158/1535-7163.MCT-18-0877
[13] = NEK2, 1 µmol/L single concentration, ref DOI: 10.1158/1535-7163.MCT-18-0877
[14] = kinase FYN [isoform a], 1 µmol/L single concentration, ref DOI: 10.1158/1535-7163.MCT-18-0877
[15] = kinase EPHB4, 1 µmol/L single concentration, ref DOI: 10.1158/1535-7163.MCT-18-0877
[16] = kinase JNK3, 1 µmol/L single concentration, ref DOI: 10.1158/1535-7163.MCT-18-0877
[17] = kinase RET, 1 µmol/L single concentration, ref DOI: 10.1158/1535-7163.MCT-18-0877
[18] = CDC7/ASK kinase assay, 1 µmol/L single concentration, ref DOI: 10.1158/1535-7163.MCT-18-0877
[19] = AMPKα2/β1/γ1 kinase assay, 1 µmol/L single concentration, ref DOI: 10.1371/journal.pone.0092146
[20] = kinase ROCK1, 1 µmol/L single concentration, ref DOI: 10.1371/journal.pone.0092146
[21] = AKT2 kinase assay, 1 µmol/L single concentration, ref DOI: 10.1371/journal.pone.0092146
[22] = NEK2, 1 µmol/L single concentration, ref DOI: 10.1371/journal.pone.0092146
[23] = kinase FYN [isoform a], 1 µmol/L single concentration, ref DOI: 10.1371/journal.pone.0092146
[24] = kinase EPHB4, 1 µmol/L single concentration, ref DOI: 10.1371/journal.pone.0092146
[25] = kinase JNK3, 1 µmol/L single concentration, ref DOI: 10.1371/journal.pone.0092146
[26] = kinase RET, 1 µmol/L single concentration, ref DOI: 10.1371/journal.pone.0092146
[27] = CDC7/ASK kinase assay, 1 µmol/L single concentration, ref DOI: 10.1371/journal.pone.0092146

| SMILES | %-inhibition AMPKα2/β1/γ1 [1, 10] | %-inhibition at 1 µmol/L, ROCK1 [2, 11] | %-inhibition AKT2 [3, 12] | %-inhibition, NEK2 [4, 13] | %-inhibition at 1 µmol/L, FYN [isoform a] [5, 14] | %-inhibition at 1 µmol/L, EPHB4 [6, 15] | %-inhibition at 1 µmol/L, JNK3 [7, 16] | %-inhibition at 1 µmol/L, RET [8, 17] | %-inhibition CDC7/ASK [9, 18] | %-inhibition at 1 µmol/L, JNK3 [7, 25] | also measured |
| --- | --- | --- | --- | --- | --- | --- | --- | --- | --- | --- | --- |
| O=C(c1ccc(F)c(F)c1Nc1ccc(I)cc1F)N1CC(O)([C@@H]2CCCCN2)C1 [cobimetinib] | 9% | -2.61% | -2.75% | 6.62% | 0.258% | -2.41% | -0.412% | 4% | 5% | – | – |
| CO[C@@H]1[C@H](N(C)C(=O)c2ccccc2)C[C@H]2O[C@]1(C)n1c3ccccc3c3c4c(c5c6ccccc6n2c5c31)C(=O)NC4 [midostaurin] | 90% | 13% | – | 0.207% | 78% | 1.2% | – | 94% | 60% | – | – |
| C=CC(=O)N1CCC[C@@H](n2nc(-c3ccc(Oc4ccccc4)cc3)c3c(N)ncnc32)C1 [ibrutinib] | 10% | -5.42% | -3% | 6.64% | 93% | 27% | 1% | 88% | -1% | – | – |
| C[C@@H](Oc1cc(-c2cnn(C3CCNCC3)c2)cnc1N)c1c(Cl)ccc(F)c1Cl [crizotinib] | – | – | – | – | – | – | – | – | – | -1.87% | %-inhibition AMPKα2/β1/γ1 [1, 19]: 27%; %-inhibition at 1 µmol/L, ROCK1 [2, 20]: 3.39%; %-inhibition AKT2 [3, 21]: -2.67%; %-inhibition, NEK2 [4, 22]: -2.69%; %-inhibition at 1 µmol/L, FYN [isoform a] [5, 23]: 42%; %-inhibition at 1 µmol/L, EPHB4 [6, 24]: 83% |
| Cc1cc(Nc2ncc(Cl)c(Nc3ccccc3S(=O)(=O)C(C)C)n2)c(OC(C)C)cc1C1CCNCC1 [ceritinib] | 40% | 31% | -4.7% | 2% | 4% | 3.73% | 16% | 32% | -2.74% | – | – |
| CC(C)(C)c1nc(-c2cccc(NS(=O)(=O)c3c(F)cccc3F)c2F)c(-c2ccnc(N)n2)s1 [dabrafenib] | – | – | – | – | – | – | – | – | – | 5.59% | %-inhibition at 1 µmol/L, RET [8, 26]: 49%; %-inhibition CDC7/ASK [9, 27]: -6% |
| C=CC(=O)Nc1cc(Nc2nccc(-c3cn(C)c4ccccc34)n2)c(OC)cc1N(C)CCN(C)C [osimertinib] | 11% | -5% | 2.2% | 8% | 0.721% | -3% | 1.89% | 7% | 1.64% | – | – |
| CC#CC(=O)N1CCC[C@H]1c1nc(-c2ccc(C(=O)Nc3ccccn3)cc2)c2c(N)nccn12 [acalabrutinib] | 3.5% | -8% | -2.69% | -6.35% | 6% | -1.45% | -0.893% | 14% | -1.64% | – | – |
| COc1cc(N2CCC(N3CCN(C)CC3)CC2)ccc1Nc1ncc(Cl)c(Nc2ccccc2P(C)(C)=O)n1 [brigatinib] | – | – | – | – | – | – | – | – | – | – | %-inhibition AMPKα2/β1/γ1 [1]: 90%; %-inhibition at 1 µmol/L, ROCK1 [2]: 25%; %-inhibition AKT2 [3]: -1%; %-inhibition, NEK2 [4]: 5.7%; %-inhibition at 1 µmol/L, FYN [isoform a] [5]: 69%; %-inhibition at 1 µmol/L, EPHB4 [6]: 9%; %-inhibition at 1 µmol/L, JNK3 [7]: 52%; %-inhibition at 1 µmol/L, RET [8]: 96%; %-inhibition CDC7/ASK [9]: 0.868% |
| CCCS(=O)(=O)Nc1ccc(F)c(C(=O)c2c[nH]c3ncc(-c4ccc(Cl)cc4)cc23)c1F [vemurafenib] | – | – | – | – | – | – | – | – | – | 2.85% | %-inhibition AMPKα2/β1/γ1 [1, 19]: 6.49%; %-inhibition at 1 µmol/L, ROCK1 [2, 20]: 1.28%; %-inhibition AKT2 [3, 21]: -3%; %-inhibition, NEK2 [4, 22]: -1%; %-inhibition at 1 µmol/L, FYN [isoform a] [5, 23]: 81%; %-inhibition at 1 µmol/L, EPHB4 [6, 24]: 3.73%; %-inhibition at 1 µmol/L, RET [8, 26]: 32%; %-inhibition CDC7/ASK [9, 27]: -7% |
| CCc1cc2c(cc1N1CCC(N3CCOCC3)CC1)C(C)(C)c1[nH]c3cc(C#N)ccc3c1C2=O [alectinib] | 6% | -2% | 0.306% | 3.37% | 15% | 11% | -0.533% | 91% | -0.8% | – | – |
| CC(=O)Nc1cccc(-n2c(=O)n(C3CC3)c(=O)c3c(Nc4ccc(I)cc4F)n(C)c(=O)c(C)c32)c1 [trametinib] | – | – | – | – | – | – | – | – | – | -2.37% | %-inhibition AMPKα2/β1/γ1 [1, 19]: 1.21%; %-inhibition at 1 µmol/L, ROCK1 [2, 20]: 3.21%; %-inhibition AKT2 [3, 21]: -8%; %-inhibition, NEK2 [4, 22]: 2.76%; %-inhibition at 1 µmol/L, FYN [isoform a] [5, 23]: 9%; %-inhibition at 1 µmol/L, EPHB4 [6, 24]: -3.38%; %-inhibition at 1 µmol/L, RET [8, 26]: -8%; %-inhibition CDC7/ASK [9, 27]: -8% |
